Assay results as given in patent US20210186905A1, “ENHANCING T-CELL FUNCTION AND TREATING A T-CELL DYSFUNCTIONAL DISORDER WITH A COMBINATION OF AN LSD INHIBITOR AND A PD-1 BINDING ANTAGONIST” (EpiAxis Therapeutic Pty Ltd, priority 2017, published 2021).
Structures can show the parent of a compound that is named as a salt.

What was measured:
Assay type in all cases: in vivo, mouse
IFN-γ and TNF-α = assay: Immunofluorescence of IFN-γ and TNF-α in CD8+ T-cells; details: IF % change
Experimental: FIG. 5 is a graphical representation showing that dual epigenetic-immunotherapy re-educates and re-programs the T-cell repertoire. A. Cells stimulated with PMA/ionomycin for 4 hours in the presence of Brefeldin A. Cells were surfaced stained with CD45, CD3, CD4, CD8, CD44, CD62L (for naïve, effector and central memory), CD25 and FoxP3 (for Tregs) and analyzed via Flow cytometry. A Mann-Whitney non-parametric t-test was used to compare control vs other groups (*p<0.05, n=2-5). […] Representative images for each dataset are shown. TNFI values for EOMES, TBET and Ki67 measured using Image) to select the nucleus minus background. […] Cells stimulated with PMA/ionomycin for 4 hours in the presence of Brefeldin A. Cell were surfaced stained with CD45, CD3, CD4, CD8 and intracellular staining of IFN-γ, IL-2 and TNF-α in the presence of Brefeldin A and analyzed via flow cytometry. […] TNFI values for TNFα and IFNγ measured using ImageJ to select the nucleus minus background. […]
A total of 2×10^5 cells were injected per mouse into mammary gland in 50 μL of phosphate buffered saline (PBS). […] Tumors were measured using calipers and the tumor volumes (mm3) were calculated using the formula (length×width2)/2. ? arvested cells from primary tumors where then cytospun ? -treated with poly-1-lysine and fixed then stored in PBS for IFA Microscopy Analysis. […]

EOMES, TBET and Ki67 = assay: Immunofluorescence of T-cell exhaustion signature in CD8+ T-cells isolated from TME; details: % change relative to control
Experimental: FIG. 5 is a graphical representation showing that dual epigenetic-immunotherapy re-educates and re-programs the T-cell repertoire. A. Cells stimulated with PMA/ionomycin for 4 hours in the presence of Brefeldin A. Cells were surfaced stained with CD45, CD3, CD4, CD8, CD44, CD62L (for naïve, effector and central memory), CD25 and FoxP3 (for Tregs) and analyzed via Flow cytometry. A Mann-Whitney non-parametric t-test was used to compare control vs other groups (*p<0.05, n=2-5). […] Representative images for each dataset are shown. TNFI values for EOMES, TBET and Ki67 measured using Image) to select the nucleus minus background. Graphs represent the % change of expression relative to control group for CD8^+ T-cells. (n>20 individual cells, Group A=Control, Group C: PD1 (10 mg/kg), Group D: Phenelzine (40 mg/kg), Group F: PD1+Phenelzine). C. Cells stimulated with PMA/ionomycin for 4 hours in the presence of Brefeldin A. Cell were surfaced stained with CD45, CD3, CD4, CD8 and intracellular staining of IFN-γ, IL-2 and TNF-α in the presence of Brefeldin A and analyzed via flow cytometry. A Mann-Whitney non-parametric t-test was used to compare control vs other groups (*p<0.05, **p<0.008; n=2-5). […] Representative images for each dataset are shown. TNFI values for TNFα and IFNγ measured using ImageJ to select the nucleus minus background. Graphs represent the % change of expression relative to control group for CD8^+ T-cells. […]
(§1) A total of 2×10^5 cells were injected per mouse into mammary gland in 50 μL of phosphate buffered saline (PBS). […] Tumors were measured using calipers and the tumor volumes (mm3) were calculated using the formula (length×width2)/2. ? arvested cells from primary tumors where then cytospun ? -treated with poly-1-lysine and fixed then stored in PBS for IFA Microscopy Analysis. […] Digital images were analysed using ImageJ software (ImageJ, NIH, Bethesda, Md., USA) to determine the either the Total Nuclear Fluorescent Intensity (TNFI), the Total Cytoplasmic Fluorescent Intensity (TCFI) or total Fluorescent Intensity (TFI).

[1] = tested on: F4/80+ macrophages (CD38, CD206, LSD1p); assay: Immunofluorescence assay of TME macrophage populations (M1/M2 profiles)
Experimental: FIG. 4 is a graphical representation showing that dual epigenetic-immunotherapy re-educates and re-programs innate macrophage repertoire. A. Immunofluorescence microscopy was performed on F4/80+MØ cells fixed and probed with a M1 panel consisting of anti-CD38 and ? odies and DAPI. […] B. Immunofluorescence microscopy was performed on F4/80+MØ cells fixed and probed with a M2 panel consisting of anti-CD206 and anti LSD1p antibodies and DAPI.
The effect of these treatment modalities was also investigated on TME macrophage populations by immunofluorescence assay (IFA). In particular, the M1 (CD38 expression) and M2 profiles (CD206 expression) were examined, along with LSD1p expression.
as §1, with “(PBS). Treatments were started on mice after 15 days post-inoculation of 4T1 cells.” for “(PBS).”

## NNCCc1ccccc1 (racemic) [phenelzine sulfate, (±)-2-phenylethylhydrazine]
IFN-γ and TNF-α
  IFN-γ expression: no significant effect
EOMES, TBET and Ki67
  EOMES expression: strongly inhibit
  Ki67 expression: more strongly
  TBET expression: more strongly
[1]
  M1 phenotype (CD38 expression and LSD1p inhibition): most strongly enhanced
  tumor associated M2 profile (CD206 and LSD1p expression): re-programmed and inhibited
